# Key:
# Parkinson's disease = assay: Norwegian Prescription Database analysis of incident Parkinson's disease; assay type: in vivo, human
# Source text: We included the entire population of Norway alive on 1 Jan. 2004 by linking the Norwegian National Registry (NNR) with the Norwegian Prescription Database (NorPD) using the unique national identification number. The NNR contains information on all residents in Norway, time of immigration, emigration and death. This information was further linked to the Norwegian National Education Database (NNED) to assess level of education of all participants.
# This registry contains complete information on all prescribed drugs dispensed at pharmacies to individuals since 2004. Each prescription includes the national identification number, which makes it possible to generate a precise chronological prescription record for individuals over time, and to link this information to other registries. Drugs are classified according to the Anatomical Therapeutic Chemical classification and doses are reported as defined daily dose (DDD). If the national insurance scheme covers the cost of the drug, the prescription also contains the diagnosis the drug was prescribed for (from 2008: ICD-10 and ICPC; before 2008: local diagnostic code).
# The first year of prescription of any antiparkinson drug (N04) was considered year of onset of PD. We used the year 2004 as a washout-period to only include incident cases.
# To further limit the chance of reverse causality, we only included users who had been prescribed at least 365 DDD or more of propranolol.
# The level of education was categorized into primary education, secondary education, undergraduate education or graduate education. Age at study start was categorized in 5 years intervals. […] Outcome was PD as defined above at time of first prescription of an antiparkinson drug. Participants not developing PD were censored at end of follow-up (31 Dec. 2014), at date of death or date of emigration out of Norway, whichever occurred first. To test for dose-response effects, we categorized participants according to the cumulative number of DDD in 2004-2007 and estimated the RR of developing PD in 2008-2014. […] The hazard ratios were interpreted as rate ratios.
# [1] = system: H3K27 acetylation of SNCA promoter and enhancers; assay: chromatin immunoprecipitation for H3K27ac at SNCA promoter and enhancers in SK-N-MC cells; assay type: cell-based, human; settings: clenbuterol 10 μM, valproic acid 100 μM, propranolol 100 μM, vs vehicle
# Method: Chromatin immunoprecipitation (ChIP) assays were performed using the Simple ChIP Enzymatic Chromatin IP kit protocol as recommended by the manufacturer (Cell Signaling Technology) with slight modifications. Briefly, ChIPs were performed on asynchronously growing SK-N-MC cells treated with clenbuterol (10 μM), valproic acid (100 μM) or propranolol (100 μM). Cross-linking was carried out with 1% formaldehyde for 10 min at room temperature. Cross-linking was subsequently quenched by adding glycine to a final concentration of 1× for 5 min. Cells were collected and washed twice with PBS, then resuspended in 2 mL of lysis buffer (as described in the protocol). After 10 min on ice, cells were treated with micrococcal nuclease and then sonicated to obtain DNA fragments of ˜500 bp as determined by agarose gel electrophoresis with ethidium bromide staining. Protein-DNA complexes were isolated by centrifugation at 10,000 rpm for 10 min. Supernatants with protein-DNA complexes were incubated overnight with rabbit polyclonal antibody directed against acetylated H3K27 (Abcam). Normal rabbit IgG was used as a negative control and Histone H3 rabbit mAb (ChIP formulated) as positive control. 2% of sample was saved as input. Antibody-protein-DNA complexes were further incubated for 2 hours with 30 μl of ChIP-grade Protein G magnetic beads to isolate antibody bound fractions of chromatin. Immuno-complexes were washed with the buffers provided and as described in the kit. Protein-DNA complexes were eluted and cross-links of pull down fractions and inputs (2% of total IP fraction) were reversed by 2 hours incubation in Proteinase K and 5 M NaCl at 65° C. […] 2 μl of immunoprecipitated DNA was analyzed by qPCR using a Power SYBR Green PCR Master mix (Applied Biosystems by Life technologies) on an ABI 7900HT instrument (Applied Biosystems) with the following temperature profile: 3 min of enzyme activation at 95° C. followed by 40 cycles of 95° C. for 15 s and 60° C. for 60 s. Sample from three independent immunoprecipitation assays were analyzed.
# Snca mRNA = Snca mRNA in rat primary cortical neurons; assay type: cell-based; settings: metaproterenol 5 μM, clenbuterol 20 μM, salbutamol 10 μM, 48 hours
# Method: Primary cortical cultures were generated from E18 Sprague-Dawley rat embryos. The cortical region was dissected out in Hank's Balanced Salt Solution buffered with Hepes and dissociated with 0.125% trypsin (Invitrogen) for 17 min at 37 ° C., followed by trituration. Dissociated cells were plated at a density of 5×10^5 cells/well or 2.5×10^5 cells/well in 12-well or 24-well plates, respectively precoated with poly-D lysine (100 μg/mL). The cells were cultured in Neurobasal medium with B-27 supplement (Invitrogen) and glutamax and gentamycin. Half of the medium was changed every 4 days. Cortical neurons were treated with β2AR agonists 10 days post plating. They were then harvested 48 hours post-treatment for mRNA extraction and 72 hours post-treatment for protein extraction.
# Total RNA from flash-frozen mice brain tissue, rodent primary cells, human neuroblastoma cells and iPSC-derived neuronal cells was isolated using TRIzol® (Life Technologies) following the manufacturer's protocol. RNA concentration was measured using NanoDrop spectrophotometer (Thermo Fisher Scientific, Wilmington, De.). 2 μg of total RNA was reverse transcribed into cDNA using the High Capacity cDNA Reverse Transcription Kit from Applied Biosystems. Quantitative PCR was performed using TaqMan Universal PCR Master Mix (Applied Biosystems) on an ABI 7900HT instrument (Applied Biosystems) as described previously (31). For mouse brain tissue and rat primary cortical neuron samples, rodent-specific TaqMan Assay on-demand primers and probes were used to assay the relative abundance of target genes, and rodent Rp113 was used as a reference gene to normalize for RNA loading. Similar results were obtained when Actb or Ubc were used as controls for input RNA. For human neuroblastoma and iPSC-derived neuron samples, human TaqMan Assay on-demand probes were used to assay the relative abundance of target genes, and the geometric mean of the three human reference genes RPL13, GUSB and UBC was used to normalize for RNA loading. Expression values were analyzed using the comparative threshold cycle method (31).
Compound,"Rate ratio (RR) for Parkinson's disease, age-, sex-adjusted (Parkinson's disease; ever user vs never user, 11 year follow-up of the entire population of Norway, propranolol: at least 365 defined daily doses)","Rate ratio (RR) for Parkinson's disease, multivariate adjusted (Parkinson's disease; ever user vs never user, 11 year follow-up, adjusted for age, sex and level of education, propranolol: at least 365 defined daily doses)","Rate ratio for Parkinson's disease with time lag between first exposure and PD onset (Parkinson's disease; time lags of one and two years, only cardiovascular diagnoses)",H3K27 acetylation across SNCA promoter and two intronic enhancers (ChIP) [1],endogenous Snca mRNA (Snca mRNA),"Rate ratio (RR) for Parkinson's disease during 2008-2014, multivariate adjusted (Parkinson's disease; High (≥180 DDD) prescribed during 2004-2007, vs never user)","Rate ratio (RR) for Parkinson's disease during 2008-2014, multivariate adjusted (Parkinson's disease; Medium (60-180 DDD) prescribed during 2004-2007, vs never user)"
"CC(C)NCC(O)COc1cccc2ccccc12 (stereo not drawn) [Propranolol, propranolol]",2.16,2.20,1.82,increased H3K27Ac,,,
CC(C)(C)NCC(O)c1cc(Cl)c(N)c(Cl)c1 (stereo not drawn) [clenbuterol],,,,reduced H3K27 acetylation,"significantly, but modestly, reduced",,
"CC(C)(C)NCC(O)c1ccc(O)c(CO)c1 (stereo not drawn) [Salbutamol, salbutamol]",,,,,"significantly, but modestly, reduced",0.45 (0.31-0.67),0.60 (0.40-0.91)

# — US20210308077A1, “COMBINATIONS INCLUDING BETA-ADRENORECEPTOR AGONISTS FOR TREATMENT OF PARKINSON`S DISEASE AND MOVEMENT DISORDERS” (The Brigham and Women`s Hospital, Inc., priority 2017, published 2021)
